How the values were obtained:
[1] = molecular target: T1, Avi-KRAS G12D (1-169) GppNHp/RAF1 RBD-3xFLAG (52-151) (Homo sapiens, UniProt P01116, G12D); test: Raf1-KRAS G12D-GppNHP disruption HTRF assay (Biological Example 1); assay type: binding
T1 construct: Avi-KRAS G12D (1-169)
Procedure, shortened: (§1)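 Percent activity versus DMSO (100%) was derived from HTRF signal after KRAS–RAF1 RBD protein mix was incubated 1 h at room temperature with shaking and detection reagents were added for a further 1 h.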

[2] = molecular target: T2, Avi-KRAS G12R (1-169) GppNHp/RAF1 RBD-3xFLAG (52-151) (Homo sapiens, UniProt P01116, G12R); test: Raf1-KRAS G12R-GppNHP disruption HTRF assay (Biological Example 1); assay type: binding
T2 construct: Avi-KRAS G12R (1-169)
T2 sequence (P01116 1-169 isoform P01116-2 G12R): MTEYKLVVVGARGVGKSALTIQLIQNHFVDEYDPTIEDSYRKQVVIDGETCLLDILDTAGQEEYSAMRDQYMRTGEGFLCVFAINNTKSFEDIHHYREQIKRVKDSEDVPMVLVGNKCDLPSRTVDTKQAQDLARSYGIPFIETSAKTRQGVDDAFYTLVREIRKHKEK
Procedure, shortened: as §1

[3] = molecular target: T3, Avi-KRAS G12V (1-169) GppNHp/RAF1 RBD-3xFLAG (52-151) (Homo sapiens, UniProt P01116, G12V); test: Raf1-KRAS G12V-GppNHP disruption HTRF assay (Biological Example 1); assay type: binding
T3 construct: Avi-KRAS G12V (1-169)
T3 sequence (P01116 1-169 isoform P01116-2 G12V): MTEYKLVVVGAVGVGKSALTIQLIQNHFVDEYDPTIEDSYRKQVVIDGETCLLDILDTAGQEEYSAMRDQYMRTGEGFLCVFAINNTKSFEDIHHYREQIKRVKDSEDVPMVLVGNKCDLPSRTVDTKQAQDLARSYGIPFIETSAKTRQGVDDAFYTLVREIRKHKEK
Procedure, shortened: as §1

[4] = molecular target: T4, Avi-KRAS WT (1-169) GppNHp/RAF1 RBD-3xFLAG (52-151) (Homo sapiens, UniProt P01116); test: Raf1-KRAS WT-GppNHP disruption HTRF assay (Biological Example 1); assay type: binding
T4 construct: Avi-KRAS WT (1-169)
T4 sequence (P01116 1-169 isoform P01116-2): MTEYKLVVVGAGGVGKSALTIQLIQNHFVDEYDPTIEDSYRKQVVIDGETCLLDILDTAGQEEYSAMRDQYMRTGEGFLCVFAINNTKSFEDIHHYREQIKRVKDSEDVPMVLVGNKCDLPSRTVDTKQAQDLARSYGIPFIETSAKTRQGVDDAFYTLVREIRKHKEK
Procedure, shortened: as §1

GP2d cells (KRAS G12D) = test: Cell-based pERK HTRF assay in GP2d cell (Biological Example 2); conditions: GP2d (KRAS G12D) cells, pERK HTRF
Procedure, shortened: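 Phospho-ERK in lysed cells was detected by HTRF using Eu cryptate and d2 antibodies, read between 4 and 24 h at room temperature. Prior to lysis, KRAS G12D GP2d cells, seeded the day before in DMEM with 10% FBS, were exposed to compounds for 60 min. Compounds were tested as 9-point half-log curves from 1 μM or 100 nM top, with 0.25% DMSO.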

SW620 cells (KRAS G12V) = test: Cell-based pERK HTRF assay in SW620 cell (Biological Example 4); conditions: pERK HTRF
Procedure, shortened: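 In SW620 cells grown in RPMI with 10% FBS, a 4 h compound treatment (0.25% DMSO, 9-point curve from 1 μM) preceded lysis. Phospho-ERK levels were then read by time-resolved FRET at 615 nm emission.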

[5] = KRAS G12D, GppNHp-loaded, class symbols
[6] = KRAS G12R, GppNHp-loaded, class symbols
[7] = KRAS G12V, GppNHp-loaded, class symbols
[8] = KRAS WT, GppNHp-loaded, class symbols
[9] = Homo sapiens, SW-620, SW620 (KRAS G12V) cells, class symbols
[10] = Homo sapiens, SW-620, SW620 (KRAS G12V) cells

T1 sequence (P01116 1-169 isoform P01116-2 G12D): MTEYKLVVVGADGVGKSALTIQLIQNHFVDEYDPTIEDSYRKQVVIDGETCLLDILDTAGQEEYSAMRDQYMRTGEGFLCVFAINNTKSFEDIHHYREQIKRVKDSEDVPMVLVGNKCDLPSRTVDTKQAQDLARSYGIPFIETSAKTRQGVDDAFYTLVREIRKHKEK

Structure (SMILES)	IC50 [1, 5] [nM]	IC50 [2, 6] [nM]	IC50 [3, 7] [nM]	IC50 [4, 8] [nM]	IC50 (GP2d cells (KRAS G12D); GP2d, class symbols) [nM]	IC50 (SW620 cells (KRAS G12V); [9]) [nM]	IC50 ([1]; KRAS G12D-GppNHp/RAF1 RBD HTRF) [nM]	IC50 ([2]; KRAS G12R-GppNHp/RAF1 RBD HTRF) [nM]	IC50 ([3]; KRAS G12V-GppNHp/RAF1 RBD HTRF) [nM]	IC50 ([4]; KRAS WT-GppNHp/RAF1 RBD HTRF) [nM]	IC50 (GP2d cells (KRAS G12D); GP2d) [nM]	IC50 (SW620 cells (KRAS G12V); [10]) [nM]	further results
CCN(c1nc(OC[C@@]23CCCN2C[C@H](F)C3)nc2c(F)c(-c3ccc(F)c4sc(N)c(C#N)c34)c(C(F)(F)F)cc12)[C@H]1CCN(C(=O)c2ccn(C)n2)C1 (atropisomer, axis not shown) [Compound 724]	< 100	< 100	< 100	< 100	< 100	< 100	–	–	–	–	–	–	–
C[C@@]1(CO)CCN1c1nc(OC[C@@]23CCCN2C[C@H](F)C3)nc2c(F)c(-c3ccc(F)c4sc(N)c(C#N)c34)c(C(F)(F)F)cc12 [Compound 413]	–	–	–	–	–	–	> 10000	> 10000	> 10000	> 10000	> 1000	> 1000	–
CCN(c1nc(OC[C@@]23CCCN2C[C@H](F)C3)nc2c(F)c(-c3ccc(F)c4sc(N)c(C#N)c34)c(C(F)(F)F)cc12)[C@@H]1CCN(C(=O)OC)C1 [Compound 396]	–	–	–	–	–	–	100 to 1000	100 to 1000	100 to 1000	100 to 1000	< 100	< 100	–
CC(=O)N1C[C@H]2OCCN(c3nc(OC[C@@]45CCCN4C[C@H](F)C5)nc4c(F)c(-c5ccc(F)c6sc(N)c(C#N)c56)c(C(F)(F)F)cc34)[C@H]2C1 [Compound 480]	–	–	–	–	–	–	1000 to 10000	1000 to 10000	1000 to 10000	1000 to 10000	< 100	< 100	–
[2H]C1([2H])CN2C[C@H](F)C[C@]2(COc2nc(N(CC)[C@H]3CCN(C(=O)C(C)C)C3)c3cc(C(F)(F)F)c(-c4ccc(F)c5sc(N)c(C#N)c45)c(F)c3n2)C1 [Compound 565]	–	–	–	–	–	–	< 100	< 100	100 to 1000	100 to 1000	< 100	< 100	–
N#Cc1c(N)sc2c(F)ccc(-c3c(C(F)(F)F)cc4c(N5CCCC[C@H](O)C5)nc(OC[C@@]56CCCN5C[C@H](F)C6)nc4c3F)c12 [Compound 290]	–	–	–	–	–	–	100 to 1000	100 to 1000	100 to 1000	100 to 1000	< 100	< 100	–
CCN(c1nc(OC[C@@]23CCCN2C[C@H](F)C3)nc2c(F)c(-c3ccc(F)c4sc(N)c(C#N)c34)c(C(F)(F)F)cc12)[C@H]1CCN(C(=O)O[C@H]2CCOC2)C1 (atropisomer, axis not shown) [Compound 682]	< 100	< 100	< 100	< 100	< 100	< 100	–	–	–	–	–	–	–
C[C@]1(O)CCCN(c2nc(OC[C@@]34CCCN3C[C@H](F)C4)nc3c(F)c(-c4ccc(F)c5sc(N)c(C#N)c45)c(C(F)(F)F)cc23)C1 [Compound 241]	–	–	–	–	–	–	–	–	–	–	< 100	< 100	IC50 ([1]; KRAS G12D, GppNHp-loaded, Table 11): 100 to 1000 nM; IC50 ([2]; KRAS G12R, GppNHp-loaded, Table 11): 100 to 1000 nM; IC50 ([3]; KRAS G12V, GppNHp-loaded, Table 11): 100 to 1000 nM; IC50 ([4]; KRAS WT, GppNHp-loaded, Table 11): 100 to 1000 nM
CCN(c1nc(OC[C@@]23CCCN2C[C@H](F)C3)nc2c(F)c(-c3ccc(F)c4sc(N)c(C#N)c34)c(C(F)(F)F)cc12)[C@H]1CCN(C(=O)C2(F)CC2)C1 (atropisomer, axis not shown) [Compound 559]	–	–	–	–	–	–	< 100	< 100	< 100	100 to 1000	< 100	< 100	–
N#Cc1c(N)sc2c(F)ccc(-c3c(C(F)(F)F)cc4c(N5[C@@H]6CO[C@H]7C6OC[C@H]75)nc(OC[C@@]56CCCN5C[C@H](F)C6)nc4c3F)c12 [Compound 382]	–	–	–	–	–	–	100 to 1000	1000 to 10000	1000 to 10000	100 to 1000	< 100	< 100	–
CC(C)C(=O)N1CC[C@@H]2[C@H]1CN2c1nc(OC[C@@]23CCCN2C[C@H](F)C3)nc2c(F)c(-c3ccc(F)c4sc(N)c(C#N)c34)c(C(F)(F)F)cc12 [Compound 536]	–	–	–	–	–	–	1000 to 10000	1000 to 10000	1000 to 10000	1000 to 10000	< 100	< 100	–
CCN(c1nc(OC[C@@]23CCCN2C[C@H](F)C3)nc2c(F)c(-c3ccc(F)c4sc(N)c(C#N)c34)c(C(F)(F)F)cc12)[C@H]1CCN(C(=O)[C@@H]2CCCCO2)C1 (atropisomer, axis not shown) [Compound 769]	< 100	< 100	< 100	< 100	< 100	< 100	–	–	–	–	–	–	–
N#Cc1c(N)sc2c(F)ccc(-c3c(C(F)(F)F)cc4c(N5CCn6nc(C(=O)N7CCC7)cc6C5)nc(OCC56CCCN5CC(F)C6)nc4c3F)c12 (stereo not drawn) [Compound 626]	100 to 1000	100 to 1000	100 to 1000	100 to 1000	< 100	< 100	–	–	–	–	–	–	–
CCN(c1nc(OC[C@@]23CCCN2C[C@H](F)C3)nc2c(F)c(-c3ccc(F)c4sc(N)c(C#N)c34)c(C(F)(F)F)cc12)[C@H]1CCN(C(=O)N2C[C@@H](F)[C@@H](F)C2)C1 (atropisomer, axis not shown) [Compound 609]	< 100	< 100	< 100	< 100	< 100	< 100	–	–	–	–	–	–	–
CCC(=O)N1CC[C@](C)(N(C)c2nc(OC[C@@]34CCCN3C[C@H](F)C4)nc3c(F)c(-c4ccc(F)c5sc(N)c(C#N)c45)c(C(F)(F)F)cc23)C1 [Compound 506]	–	–	–	–	–	–	100 to 1000	1000 to 10000	1000 to 10000	1000 to 10000	< 100	< 100	–
CC(=O)N1CCC[C@@H](N(C)c2nc(OC[C@@]34CCCN3C[C@H](F)C4)nc3c(F)c(-c4ccc(F)c5sc(N)c(C#N)c45)c(C(F)(F)F)cc23)C1 [Compound 295]	–	–	–	–	–	–	100 to 1000	100 to 1000	100 to 1000	100 to 1000	< 100	< 100	–
CN1C[C@@H](N(C)c2nc(OC[C@@]34CCCN3C[C@H](F)C4)nc3c(F)c(-c4ccc(F)c5sc(N)c(C#N)c45)c(C(F)(F)F)cc23)CCC1=O [Compound 478]	–	–	–	–	–	–	100 to 1000	1000 to 10000	1000 to 10000	100 to 1000	< 100	< 100	–
CCN(c1nc(OC[C@@]23CCCN2C[C@H](F)C3)nc2c(F)c(-c3ccc(F)c4sc(N)c(C#N)c34)c(C(F)(F)F)cc12)[C@H]1CCN(C(=O)[C@H]2CCO2)[C@@H]1C (atropisomer, axis not shown) [Compound 805]	< 100	< 100	< 100	< 100	< 100	< 100	–	–	–	–	–	–	–
CC(C)C(=O)N1CC[C@H](N(CCF)c2nc(OC[C@@]34CCCN3C[C@H](F)C4)nc3c(F)c(-c4ccc(F)c5sc(N)c(C#N)c45)c(C(F)(F)F)cc23)C1 (atropisomer, axis not shown) [Compound 814]	< 100	< 100	100 to 1000	100 to 1000	< 100	< 100	–	–	–	–	–	–	–
N#Cc1c(N)sc2c(F)ccc(-c3c(C(F)(F)F)cc4c(N5CCN6C(=O)OCC6C5)nc(OCC56CCCN5CC(F)C6)nc4c3F)c12 (stereo not drawn) [Compound 431]	–	–	–	–	–	–	1000 to 10000	1000 to 10000	1000 to 10000	1000 to 10000	–	–	IC50 (GP2d cells (KRAS G12D)): < 100 nM; IC50 (SW620 cells (KRAS G12V); SW620 (KRAS G12V) cells): < 100 nM
C[C@@H]1[C@H](N(C)c2nc(OC[C@@]34CCCN3C[C@H](F)C4)nc3c(F)c(-c4ccc(F)c5sc(N)c(C#N)c45)c(C(F)(F)F)cc23)CCN1C(=O)C(C)(C)F [Compound 424]	–	–	–	–	–	–	100 to 1000	100 to 1000	1000 to 10000	100 to 1000	< 100	100 to 1000	–
N#Cc1c(N)sc2c(F)ccc(-c3c(C(F)(F)F)cc4c(N5C[C@H]6C[C@@H]5CO6)nc(OC[C@@]56CCCN5C[C@H](F)C6)nc4c3F)c12 (single isomer, unassigned) [Compound 288]	–	–	–	–	–	–	> 10000	> 10000	> 10000	> 10000	–	–	IC50 (GP2d cells (KRAS G12D)): 100 to 1000 nM; IC50 (SW620 cells (KRAS G12V); SW620 (KRAS G12V) cells): 100 to 1000 nM

Source: US20260042764A1, “COMPOSITIONS AND METHODS FOR INHIBITION OF KRAS” (TheRas, Inc., priority 2022, published 2026)
